According to patent publication US10758609B2, “Cross-reactive T-cell epitopes of HIV, SIV, and FIV for vaccines in humans and cats” (priority 2015, dated 2020):
Residues, ends and D or L forms follow the SMILES beside them.

What was measured:
[1] = test system: CD4^+ T cells from HIV^+ subjects; details: HIV+ human subjects; for CyCD4: CD4+ T-cell cytolysin/cytotoxins (perforin, GrzA & B), frequency of responders: HIV-1 epitope peptide, threshold ≥0.2%; for CyCD4 (cytolysin and cytotoxin production of CD4+ T cells), frequency of responders: HIV-1 peptides
Method: (§1) The overlapping peptide pools of FIV and HIV-1 structural and enzyme proteins were used to stimulate the […] (PBMC) and the T cells from HIV^+ subjects as previously described for epitope mapping of HIV-1 and FIV p24 and reverse transcriptase (RT) (Sanou et al., 2013; Roff et al., 2015). The individual peptides in those peptide pools with positive responses to either interferon-γ (IFNγ) production and/or T-cell proliferation were determined with IFNγ ELISpot analysis and CFSE-based CD3^+CD4^+ and CD3^+CD8^+ T-cell proliferation analyses followed by the FACS-based intracellular staining (ICS) for cytolysin (perforin) and cytotoxin (granzyme A [GrzA] and GrzB) (Sanou et al., 2013; Roff et al., 2015). Besides viral p24 and RT proteins, the identical approach was used to identify anti-HIV/FIV T-cell epitopes on viral matrix (MA), nucleocapsid (NC), protease (PR), RNAase, integrase (IN), surface envelope (SU Env), and transmembrane envelope (TM Env) (FIG. 12).
(§2) Since our goal is to develop HIV vaccine for human use, the HIV peptides (Table 10) counterpart of the cross-reactive FIV peptides shown in Table 9 were tested with PBMC and T cells from HIV^+ subjects. The immune functions analyzed were human IFNγ production by ELISpot, cytolysin/cytotoxin production by ICS, and CFSE-based proliferation of CD3^+CD4^+ and CD3^+CD8^+ T cells from HIV^+ subjects (Table 10, the first set of results). In addition, the Los Alamos National Laboratories (LANL) database was used to identify the HLA allele(s) of the HIV epitope sequence with CTL activity that can exist within the sequence of the conserved counterpart HIV peptide (Table 9, LANL CTL). The bold HLA class-I supertypes and the bold 2-digit alleles are those on the “Optimal CD8^+ CTL Epitopes” list and those without bold are alleles for potential CTL epitope. […] The HLA class II such as HLA-DRB1 has yet to be fully classified into supertypes, and therefore the 4-digit resolution nomenclatures for the HLA-DRB1 alleles are shown.
(§3) The counterpart HIV-1 peptides of the FIV peptides were also tested for immunogenicity using PBMC and T cells from HIV^+ human subjects. […] The HRT7-1 and HRT7-2 were also tested with cells from HIV^+ subjects on ART. The threshold for positive IFNγ ELISpot response is ≥75 spot-forming units (SFU) per 10^6 PBMC. The threshold for CFSE-based CD4^+ (CD4^+ T) and CD8^+ (CD8^+ T) T-cell proliferation is ≥2% CD4^+ T-cell CFSE^low or CD8^+ T-cell CFSE^low. The threshold of intracellular cytokine staining (ICS) of FACS-based cytolysin (perforin) and cytotoxins (granzymes A and B) in CD4^+ T cells (CyCD4) and CD8^+ T cells (CyCD8) is ≥0.2%. […] The nine HIV-1 peptides in black are the counterpart FIV peptides used in the current MAP vaccine trial, whereas the 13 peptides in blue were not.

[2] = test system: CD8^+ T cells from HIV^+ subjects; assay: FACS-based intracellular staining (ICS) for cytolysin (perforin) and cytotoxins (GrzA, GrzB) in CD8+ T cells; details: HIV-1 epitope peptide; HIV+ human subjects; threshold ≥0.2%
Method: as §1, §2
The threshold for positive IFNγ and IL2 ELISpot responses is ≥50 spot-forming units (SFU) per 10^6 PBMC. The threshold for CFSE-based CD4^+ and CD8^+ T-cell proliferation is ≥2% CD4^+ T-cell CFSE^low or CD8^+ T-cell CFSE^low. The threshold of FACS-based intracellular cytokine staining (ICS) is ≥0.2%. […] The nine FIV peptides in black were used in the current MAP vaccine trial, whereas the 13 peptides in blue were not used. […] The MAPs and their corresponding peptide(s) were also tested for their ability to enhance or suppress in vitro FIV infection of feline PBMC (E/S of peptides and E/S of MAP).
as §3

SMILES | CyCD4: CD4+ T-cell cytolysin/cytotoxins (perforin, GrzA & B), frequency of responders [1] | CyCD4 (cytolysin and cytotoxin production of CD4+ T cells), frequency of responders [1] | CyCD8: CD8+ T-cell cytolysin/cytotoxins (perforin, GrzA & B), frequency of responders [2]
CC[C@H](C)[C@H](NC(=O)[C@H](CC(=O)O)NC(=O)[C@@H](NC(=O)[C@H](C)NC(=O)[C@@H](NC(=O)[C@@H](NC(=O)[C@H](CC(=O)O)NC(=O)[C@@H](NC(=O)[C@@H](NC(=O)[C@H](CCCNC(=N)N)NC(=O)[C@H](CCC(=O)O)NC(=O)CN)[C@@H](C)CC)C(C)C)[C@@H](C)CC)[C@@H](C)CC)[C@@H](C)O)C(=O)N[C@@H](CCC(N)=O)C(=O)N[C@H](C(=O)N[C@@H](CCCCN)C(=O)O)[C@@H](C)O [HIN7-1] (H-GERIVDIIATDIQTK-OH; N-terminus and C-terminus assumed) | − (0%-1.4% (−)) | — (0%-1.4%(—)) | + (12.5%-25% (+))
CC(C)[C@H](NC(=O)CNC(=O)[C@H](CO)NC(=O)[C@H](CCCNC(=N)N)NC(=O)[C@H](Cc1ccccc1)NC(=O)[C@H](CO)NC(=O)[C@H](CCC(=O)O)NC(=O)[C@H](CCC(=O)O)NC(=O)[C@@H]1CCCN1C(=O)[C@@H]1CCCN1C(=O)[C@H](C)NC(=O)[C@@H](N)[C@@H](C)O)C(=O)N[C@@H](CCC(=O)O)C(=O)N[C@H](C(=O)N[C@H](C(=O)N[C@H](C(=O)O)[C@@H](C)O)[C@@H](C)O)[C@@H](C)O [HNC2] (H-TAPPEESFRSGVETTT-OH; N-terminus and C-terminus assumed) | − (0%-1.4% (−)) |  | + (12.5%-25% (+))
CC(C)C[C@H](NC(=O)[C@H](C)NC(=O)[C@@H](N)CCC(=O)O)C(=O)N[C@@H](CC(C)C)C(=O)N[C@@H](CC(=O)O)C(=O)N[C@H](C(=O)NCC(=O)N[C@@H](C)C(=O)N[C@@H](CC(=O)O)C(=O)N[C@@H](CC(=O)O)C(=O)N[C@H](C(=O)N[C@H](C(=O)N[C@@H](CC(C)C)C(=O)N[C@@H](CCC(=O)O)C(=O)O)C(C)C)[C@@H](C)O)[C@@H](C)O [HPR2] (H-EALLDTGADDTVLE-OH; N-terminus and C-terminus assumed) | − (0%-1.4% (−)) |  | − (0%-1.4% (−))
CC(C)C[C@H](NC(=O)[C@H](CCC(=O)O)NC(=O)[C@H](CCCNC(=N)N)NC(=O)[C@H](Cc1ccccc1)NC(=O)[C@H](CC(=O)O)NC(=O)[C@@H](NC(=O)[C@H](CC(C)C)NC(=O)[C@H](CCCCN)NC(=O)[C@H](CCCNC(=N)N)NC(=O)[C@@H](N)Cc1c[nH]c2ccccc12)C(C)C)C(=O)N[C@@H](CC(N)=O)C(=O)N[C@@H](CCCCN)C(=O)N[C@@H](CCCNC(=N)N)C(=O)O [HRT3-4] | ++++ (>54% (++++)) | ++++ (>54% (++++)) | ++++ (>54% (++++))
CC[C@H](C)[C@H](NC(=O)CN)C(=O)N[C@@H](CCCNC(=N)N)C(=O)N[C@@H](Cc1ccc(O)cc1)C(=O)N[C@@H](CCC(N)=O)C(=O)N[C@@H](Cc1ccc(O)cc1)C(=O)N[C@@H](CC(N)=O)C(=O)N[C@H](C(=O)N[C@@H](CC(C)C)C(=O)N1CCC[C@H]1C(=O)N[C@@H](CCC(N)=O)C(=O)NCC(=O)N[C@@H](Cc1c[nH]c2ccccc12)C(=O)N[C@@H](CCCCN)C(=O)NCC(=O)O)C(C)C [HRT7-1] | − (0%-1.4% (−)) |  | − (0%-1.4% (−))
CC[C@H](C)[C@H](NC(=O)[C@H](C)NC(=O)[C@@H]1CCCN1C(=O)[C@H](CO)NC(=O)CNC(=O)[C@H](CCCCN)NC(=O)[C@H](Cc1c[nH]c2ccccc12)NC(=O)CNC(=O)[C@H](CCC(N)=O)NC(=O)[C@@H]1CCCN1C(=O)[C@H](CC(C)C)NC(=O)[C@@H](NC(=O)[C@@H](N)CC(N)=O)C(C)C)C(=O)N[C@@H](Cc1ccccc1)C(=O)O [HRT7-2] | − (0%-1.4% (−)) |  | − (0%-1.4% (−))
CC[C@H](C)[C@H](NC(=O)[C@H](CCCCN)NC(=O)[C@@H](NC(=O)[C@@H](NC(=O)[C@H](CCCCN)NC(=O)[C@H](Cc1ccc(O)cc1)NC(=O)[C@H](CCCCN)NC(=O)[C@H](Cc1ccc(O)cc1)NC(=O)[C@H](CC(C)C)NC(=O)[C@H](CCC(=O)O)NC(=O)[C@H](CO)NC(=O)[C@H](CCCNC(=N)N)NC(=O)[C@H](Cc1c[nH]c2ccccc12)NC(=O)[C@H](CC(N)=O)NC(=O)[C@@H](N)CC(=O)O)C(C)C)C(C)C)C(=O)O [HSU4] (H-DNWRSELYKYKVVKI-OH; N-terminus and C-terminus assumed) | − (0%-1.4% (−)) |  | + (12.5%-25% (+))
CC[C@H](C)[C@H](NC(=O)CNC(=O)[C@H](CC(C)C)NC(=O)[C@H](CC(C)C)NC(=O)[C@H](CCC(N)=O)NC(=O)[C@H](CCC(N)=O)NC(=O)[C@H](CC(=O)O)NC(=O)[C@H](CCCCN)NC(=O)[C@H](CC(C)C)NC(=O)[C@@H](N)Cc1ccc(O)cc1)C(=O)N[C@@H](Cc1c[nH]c2ccccc12)C(=O)NCC(=O)N[C@@H](CS)C(=O)O [HTM4-3] (H-YLKDQQLLGIWGC-OH; N-terminus and C-terminus assumed) | − (0%-1.4% (−)) |  | + (12.5%-25% (+))
CC[C@H](C)[C@H](NC(=O)[C@H](CCCNC(=N)N)NC(=O)[C@@H](N)CC(C)C)C(=O)N[C@H](C(=O)N[C@@H](Cc1ccccc1)C(=O)N[C@@H](C)C(=O)N[C@H](C(=O)N[C@@H](CC(C)C)C(=O)N[C@@H](CO)C(=O)N[C@H](C(=O)N[C@H](C(=O)N[C@@H](CC(N)=O)C(=O)N[C@@H](CCCNC(=N)N)C(=O)N[C@H](C(=O)N[C@@H](CCCNC(=N)N)C(=O)N[C@@H](CCC(N)=O)C(=O)O)C(C)C)C(C)C)[C@@H](C)CC)C(C)C)C(C)C [HTM8(20)] (H-LRIVFAVLSIVNRVRQ-OH; N-terminus and C-terminus assumed) | − (0%-1.4% (−)) |  | − (0%-1.4% (−))
CSCC[C@H](NC(=O)[C@@H](NC(=O)[C@H](CC(N)=O)NC(=O)[C@H](CC(C)C)NC(=O)[C@H](CC(=O)O)NC(=O)[C@H](CCC(N)=O)NC(=O)[C@@H]1CCCN1)[C@@H](C)O)C(=O)N[C@@H](CC(C)C)C(=O)N[C@@H](CC(N)=O)C(=O)N[C@H](C(=O)N[C@H](C(=O)NCC(=O)NCC(=O)N[C@@H](Cc1c[nH]cn1)C(=O)N[C@@H](CCC(N)=O)C(=O)O)C(C)C)[C@@H](C)O [Hp4-3] (H-PQDLNTMLNTVGGHQ-OH; N-terminus and C-terminus assumed) | − (0%-1.4% (−)) |  | ++ (25.1%-40% (++))
CSCC[C@H](NC(=O)[C@H](Cc1c[nH]c2ccccc12)NC(=O)[C@H](CC(N)=O)NC(=O)[C@H](CCCCN)NC(=O)[C@@H](N)C(C)C)C(=O)N[C@H](C(=O)N[C@@H](CCC(=O)O)C(=O)N[C@H](C(=O)N[C@@H](CC(C)C)C(=O)N[C@@H](CC(C)C)C(=O)N[C@H](C(=O)N[C@@H](CCC(N)=O)C(=O)N[C@@H](CC(N)=O)C(=O)N[C@@H](C)C(=O)N[C@@H](CC(N)=O)C(=O)O)C(C)C)[C@@H](C)O)[C@@H](C)O [Hp14-3(15-3)] (H-VKNWMTETLLVQNAN-OH; N-terminus and C-terminus assumed) |  | ++++ (>54% (++++)) | 
